Reference: article PMC7226075, “A Novel Serine Protease Inhibitor PE-BBI Ameliorates Cockroach Extract-Mediated Airway Epithelial Barrier Dysfunction” (Biomolecules, 2020)
Entries after “also recorded” stand apart in the source; their conditions may differ.

What was measured:
BEAS-2B cells = settings: ref [13], cited from earlier work
[1] = system: 16HBE cell surface TLP activity; assay: 16HBE cell surface TLP activity assay; assay type: cell-based, human; settings: polarised 16HBE, inhibitor 50 µM, Boc-QAR-NH2Mec 50 µM apical, 1 h continuous, λex 380/λem 460 nm; n = 7, mean ± SEM
Protocol: Studies were performed using a SV-40-transformed human bronchial epithelial cell line (16HBE14o^-). The 16HBE cells were grown on collagen-coated T75 flasks (Corning) using bronchial epithelial growth medium (BEGM) (Lonza), in a humidified cell culture incubator supplemented with 5% CO2. After trypsinization, cells (5 × 10^5 cells/cm^2) were seeded onto semipermeable transwell filters (Corning) in BEGM and allowed to grow at liquid–liquid interface for 2 days then switched to DMEM/F-12 medium supplemented with 2% (v/v) Ultroser G (Pall-BioSpera) for a further 2 days (liquid–liquid interface), at which point cultures were exposed to air–liquid interface conditions for a further 5–7 day period, whereupon experiments were conducted.
Polarised 16HBE cells grown on transwell semi-permeable filters were used to assess cell surface TLP activity. Apical cell-surface (membrane-attached) proteolytic activity was measured in stringently washed (using PBS) cells via direct addition of a fluorogenic peptide substrate (50 µM Boc-QAR-–NH2Mec) to the apical compartment with continuous measurement of the formation of –NH2Mec (at λex 380 nm and λem 460 nm) over a 1 h period. Surface activity was determined in the presence and absence of protease inhibitors (GM, pLR-HL or PE-BBI) which were added at a final concentration of 50 µM.

16HBE cells = assay: Cell viability assay (RealTime-Glo MT), submerged 16HBE cells; assay type: cell-based, human; settings: CRE 16.5 µg protein/well, 24 h, inhibitor 50 µM, n = 6
Protocol: Cell viability was measured in submerged 16HBE cells using the non-lytic and homogeneous RealTime-Glo MT Cell Viability Assay (Promega) as per the manufacturer’s instructions.

recombinant trypsin = assay: Inhibition of recombinant trypsin, fluorogenic peptide substrate-based activity assay; assay type: biochemical; settings: Boc-QAR-NH2Mec 50 µM, λex 380/λem 460 nm, 37 °C, 100 μL, inhibitors 0.01–10 μM, four-parameter logistic fit; mean (95% CI) in Figure 1B, n ≥ 4
Protocol: (§1) Cleavage of the fluorogenic peptide substrate Boc-QAR-NH2Mec (50 µM final concentration) (R&D Systems) was used to assay TLP activity with the rate of substrate hydrolysis continuously recorded at λex 380 nm and λem 460 nm using a FLUOstar Optima microplate reader (BMG Labtech). All inhibition assays were performed in microtitre plates maintained at 37 °C in a final volume of 100 μL. Curve fitting and pIC50 (-logIC50) determinations were carried out by fitting to a four-parameter logistic equation (GraphPad Prism).

[2] = system: cockroach extract (CRE) trypsin-like protease (TLP) activity; assay: Inhibition of CRE trypsin-like protease (TLP) activity, fluorogenic peptide substrate-based assay; assay type: biochemical, German cockroach; settings: Boc-QAR-NH2Mec 50 µM, λex 380/λem 460 nm, 37 °C, 100 μL, inhibitors 0.01–10 μM, four-parameter logistic fit; mean (95% CI) in Figure 1B, n ≥ 4
Protocol: Whole-body German cockroach extract was sourced from Greer Laboratories (USA). All other reagents were obtained from Sigma-Aldrich unless otherwise indicated.
as §1

pIC50 (-logIC50) vs recombinant trypsin (recombinant trypsin): 6.76
pIC50 (-logIC50) vs CRE TLP activity [2]: ~ 6.7
Structure (SMILES): CCOC(=O)c1ccc(OC(=O)CCCCCN=C(N)N)cc1.CS(=O)(=O)O [GM, gabexate mesylate]
CRE-induced airway epithelial cell damage in presence of GM (BEAS-2B cells; previous study): ameliorates CRE-induced airway epithelial cell damage
CRE-mediated cell damage and inflammation in presence of GM (BEAS-2B cells): reduced CRE-mediated cell damage and inflammation
Effect on 16HBE cell surface TLP activity [1]: significantly reduced
Rescue of CRE-induced cell damage (viability) (16HBE cells): failed to do so; also recorded: trend towards modest protection of cells by GM, and pLR-HL, but this was not statistically significant
